# Results reported in publication PMC7316778 (Nature Communications, 2020).
# Where “and” joins values, the source holds several entries; their conditions need not be identical. Identical values can stand only once. Like-named read-outs stand apart in the source and are kept apart here.
# Key:
# Assay in all cases: SelectScreen kinase assay
# AURKA (Aurora A) = target: T1, AURKA (Aurora A) (Homo sapiens, UniProt O14965)
# T1 sequence (O14965 1-403): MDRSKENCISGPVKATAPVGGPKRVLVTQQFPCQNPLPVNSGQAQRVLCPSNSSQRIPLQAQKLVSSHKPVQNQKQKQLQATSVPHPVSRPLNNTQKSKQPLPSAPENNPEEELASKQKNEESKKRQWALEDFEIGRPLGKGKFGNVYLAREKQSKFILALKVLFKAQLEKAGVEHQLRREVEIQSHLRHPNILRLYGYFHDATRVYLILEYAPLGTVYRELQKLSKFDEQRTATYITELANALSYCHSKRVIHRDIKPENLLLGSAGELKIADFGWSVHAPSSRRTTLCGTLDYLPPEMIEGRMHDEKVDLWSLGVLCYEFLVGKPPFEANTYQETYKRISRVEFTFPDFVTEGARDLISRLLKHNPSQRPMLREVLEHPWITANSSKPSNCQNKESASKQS
# Procedure: (§1) Selectivity profiling assays were performed by the Invitrogen SelectScreen™ Services. […] The concentration of ATP was selected to be equal to the KM, unless indicated otherwise.
# BTK = BTK (Homo sapiens, UniProt Q06187)
# Procedure: as §1
# CSF1R (FMS) = CSF1R (FMS) (Homo sapiens, UniProt P07333)
# Procedure: as §1
# CSNK1G2 (CK1 gamma 2) = CSNK1G2 (CK1 gamma 2) (Homo sapiens, UniProt P78368)
# Procedure: as §1
# HIPK1 (Myak) = HIPK1 (Myak) (Homo sapiens, UniProt Q86Z02); conditions: for Inhibition at 1 µM (%): HIPK1 (Myak), ZLYTE, ATP Km app
# Procedure: as §1
# LATS2 = target: T2, LATS2 (Homo sapiens, UniProt Q9NRM7); conditions: for Inhibition at 1 µM (%): LATS2, LanthaScreen Binding
# T2 sequence (Q9NRM7 1-1088): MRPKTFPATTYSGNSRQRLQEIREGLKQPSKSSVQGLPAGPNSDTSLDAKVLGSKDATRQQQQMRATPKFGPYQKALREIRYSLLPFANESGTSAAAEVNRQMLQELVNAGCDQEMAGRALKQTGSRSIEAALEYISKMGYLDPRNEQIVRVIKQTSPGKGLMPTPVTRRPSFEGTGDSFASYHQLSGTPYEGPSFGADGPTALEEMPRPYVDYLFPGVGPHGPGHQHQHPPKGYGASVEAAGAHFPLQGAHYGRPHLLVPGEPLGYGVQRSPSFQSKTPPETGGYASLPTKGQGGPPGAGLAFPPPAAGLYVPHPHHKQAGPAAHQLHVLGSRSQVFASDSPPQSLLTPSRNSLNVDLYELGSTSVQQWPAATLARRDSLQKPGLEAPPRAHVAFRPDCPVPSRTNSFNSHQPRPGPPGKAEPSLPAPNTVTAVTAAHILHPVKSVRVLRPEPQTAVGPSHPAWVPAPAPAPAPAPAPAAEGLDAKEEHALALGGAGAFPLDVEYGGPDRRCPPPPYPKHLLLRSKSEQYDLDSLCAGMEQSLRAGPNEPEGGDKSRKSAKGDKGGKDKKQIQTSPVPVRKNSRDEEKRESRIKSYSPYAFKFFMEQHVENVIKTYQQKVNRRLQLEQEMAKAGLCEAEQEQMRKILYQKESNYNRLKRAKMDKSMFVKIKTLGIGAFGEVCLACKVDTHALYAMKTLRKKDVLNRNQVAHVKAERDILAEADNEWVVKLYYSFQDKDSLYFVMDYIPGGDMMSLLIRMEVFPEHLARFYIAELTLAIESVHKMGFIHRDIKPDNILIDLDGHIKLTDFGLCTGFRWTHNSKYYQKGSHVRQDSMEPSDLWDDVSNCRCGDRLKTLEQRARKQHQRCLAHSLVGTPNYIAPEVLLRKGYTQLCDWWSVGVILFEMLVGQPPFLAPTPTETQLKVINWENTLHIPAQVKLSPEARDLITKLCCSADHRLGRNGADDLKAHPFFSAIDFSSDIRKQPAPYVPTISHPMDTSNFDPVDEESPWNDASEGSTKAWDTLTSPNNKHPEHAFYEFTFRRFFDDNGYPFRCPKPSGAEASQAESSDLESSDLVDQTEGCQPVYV
# Procedure: as §1
# MAP3K2 (MEKK2) = MAP3K2 (MEKK2) (Homo sapiens, UniProt Q9Y2U5)
# Procedure: as §1
# MERTK (cMER) = MERTK (cMER) (Homo sapiens, UniProt Q12866)
# Procedure: as §1
# PRKCI (PKC iota) = target: T3, PRKCI (PKC iota) (Homo sapiens, UniProt P41743); conditions: for Inhibition at 1 µM (%): PRKCI (PKC iota), ZLYTE, ATP Km app
# T3 sequence (P41743 1-596): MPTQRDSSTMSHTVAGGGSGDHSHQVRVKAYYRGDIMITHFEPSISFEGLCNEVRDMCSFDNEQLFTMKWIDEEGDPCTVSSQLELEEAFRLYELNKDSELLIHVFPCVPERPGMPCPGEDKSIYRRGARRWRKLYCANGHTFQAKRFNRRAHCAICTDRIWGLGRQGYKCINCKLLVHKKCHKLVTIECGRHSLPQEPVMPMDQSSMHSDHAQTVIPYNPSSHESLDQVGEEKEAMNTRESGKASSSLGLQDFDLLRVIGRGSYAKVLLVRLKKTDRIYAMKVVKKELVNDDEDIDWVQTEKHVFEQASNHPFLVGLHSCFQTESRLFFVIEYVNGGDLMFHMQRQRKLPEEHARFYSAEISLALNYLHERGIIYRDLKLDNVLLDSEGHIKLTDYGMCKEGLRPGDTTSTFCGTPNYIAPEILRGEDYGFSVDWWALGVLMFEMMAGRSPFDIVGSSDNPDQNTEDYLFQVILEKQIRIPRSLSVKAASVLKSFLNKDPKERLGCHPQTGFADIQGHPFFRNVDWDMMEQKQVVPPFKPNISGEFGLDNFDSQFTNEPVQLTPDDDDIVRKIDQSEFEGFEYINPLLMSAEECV
# Procedure: as §1
# [1] = 1 h, 1 μM WEL028, 1 h preincubation
# Sequence of MERTK (cMER) (Q12866 21-999): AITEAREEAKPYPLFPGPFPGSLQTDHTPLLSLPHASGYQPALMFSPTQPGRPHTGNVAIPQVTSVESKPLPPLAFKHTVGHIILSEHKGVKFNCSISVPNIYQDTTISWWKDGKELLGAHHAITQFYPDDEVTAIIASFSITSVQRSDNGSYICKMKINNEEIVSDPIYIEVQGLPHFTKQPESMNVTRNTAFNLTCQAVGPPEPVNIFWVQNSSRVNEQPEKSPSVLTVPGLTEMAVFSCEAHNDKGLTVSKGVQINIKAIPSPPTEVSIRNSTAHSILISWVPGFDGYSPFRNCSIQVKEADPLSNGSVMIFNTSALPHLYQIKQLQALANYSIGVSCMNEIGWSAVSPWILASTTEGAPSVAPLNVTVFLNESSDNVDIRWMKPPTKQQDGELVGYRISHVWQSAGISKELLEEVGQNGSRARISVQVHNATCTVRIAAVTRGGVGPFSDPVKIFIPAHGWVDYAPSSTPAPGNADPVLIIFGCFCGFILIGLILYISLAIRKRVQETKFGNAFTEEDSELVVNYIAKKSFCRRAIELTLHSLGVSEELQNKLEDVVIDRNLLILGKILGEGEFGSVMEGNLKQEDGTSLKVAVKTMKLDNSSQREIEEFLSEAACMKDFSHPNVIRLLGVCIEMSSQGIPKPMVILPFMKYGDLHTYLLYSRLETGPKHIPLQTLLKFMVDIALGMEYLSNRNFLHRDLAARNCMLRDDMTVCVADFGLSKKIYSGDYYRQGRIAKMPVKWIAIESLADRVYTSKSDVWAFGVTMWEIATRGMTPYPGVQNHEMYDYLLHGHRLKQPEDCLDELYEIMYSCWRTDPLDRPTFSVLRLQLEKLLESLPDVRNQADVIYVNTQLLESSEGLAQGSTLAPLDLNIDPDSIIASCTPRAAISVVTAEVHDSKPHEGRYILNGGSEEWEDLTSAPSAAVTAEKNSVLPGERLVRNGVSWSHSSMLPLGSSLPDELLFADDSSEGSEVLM
# Sequence of CSNK1G2 (CK1 gamma 2) (P78368 whole entry): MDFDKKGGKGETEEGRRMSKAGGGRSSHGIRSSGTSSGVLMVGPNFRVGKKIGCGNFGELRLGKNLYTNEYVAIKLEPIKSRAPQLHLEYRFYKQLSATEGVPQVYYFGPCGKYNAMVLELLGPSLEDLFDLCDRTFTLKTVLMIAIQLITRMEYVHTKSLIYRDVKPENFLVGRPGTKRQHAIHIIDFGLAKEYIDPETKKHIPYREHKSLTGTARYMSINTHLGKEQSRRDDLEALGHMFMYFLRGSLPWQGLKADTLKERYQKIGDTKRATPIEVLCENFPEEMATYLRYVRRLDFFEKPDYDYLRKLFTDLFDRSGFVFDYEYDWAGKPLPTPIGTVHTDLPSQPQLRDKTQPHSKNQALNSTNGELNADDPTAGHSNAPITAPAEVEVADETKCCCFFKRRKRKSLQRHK
# Sequence of CSF1R (FMS) (P07333 20-972): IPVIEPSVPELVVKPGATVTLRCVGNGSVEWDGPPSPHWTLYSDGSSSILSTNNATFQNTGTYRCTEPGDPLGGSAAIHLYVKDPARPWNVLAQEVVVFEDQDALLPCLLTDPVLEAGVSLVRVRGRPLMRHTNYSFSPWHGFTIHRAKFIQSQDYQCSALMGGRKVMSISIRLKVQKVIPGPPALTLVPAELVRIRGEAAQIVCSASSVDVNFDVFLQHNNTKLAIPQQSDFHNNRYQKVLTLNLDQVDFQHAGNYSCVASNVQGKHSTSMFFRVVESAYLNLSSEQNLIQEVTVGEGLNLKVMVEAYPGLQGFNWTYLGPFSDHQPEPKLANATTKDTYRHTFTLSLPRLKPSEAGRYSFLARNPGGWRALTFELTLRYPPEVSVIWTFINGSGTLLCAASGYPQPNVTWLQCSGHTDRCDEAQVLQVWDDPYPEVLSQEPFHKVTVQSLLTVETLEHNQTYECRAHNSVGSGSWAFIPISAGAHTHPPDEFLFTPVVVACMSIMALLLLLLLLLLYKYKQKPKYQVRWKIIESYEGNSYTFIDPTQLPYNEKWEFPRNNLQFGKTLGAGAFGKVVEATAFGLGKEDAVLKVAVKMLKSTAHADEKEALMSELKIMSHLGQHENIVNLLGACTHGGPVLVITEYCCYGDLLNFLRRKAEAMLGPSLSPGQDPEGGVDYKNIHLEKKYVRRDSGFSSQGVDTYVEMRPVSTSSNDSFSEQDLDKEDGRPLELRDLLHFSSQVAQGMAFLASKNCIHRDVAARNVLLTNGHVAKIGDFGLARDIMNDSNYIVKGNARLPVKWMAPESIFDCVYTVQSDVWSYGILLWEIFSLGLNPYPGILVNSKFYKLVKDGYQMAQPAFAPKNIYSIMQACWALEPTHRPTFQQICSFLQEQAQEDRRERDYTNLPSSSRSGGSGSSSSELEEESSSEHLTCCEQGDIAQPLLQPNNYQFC
# Sequence of HIPK1 (Myak) (Q86Z02 whole entry): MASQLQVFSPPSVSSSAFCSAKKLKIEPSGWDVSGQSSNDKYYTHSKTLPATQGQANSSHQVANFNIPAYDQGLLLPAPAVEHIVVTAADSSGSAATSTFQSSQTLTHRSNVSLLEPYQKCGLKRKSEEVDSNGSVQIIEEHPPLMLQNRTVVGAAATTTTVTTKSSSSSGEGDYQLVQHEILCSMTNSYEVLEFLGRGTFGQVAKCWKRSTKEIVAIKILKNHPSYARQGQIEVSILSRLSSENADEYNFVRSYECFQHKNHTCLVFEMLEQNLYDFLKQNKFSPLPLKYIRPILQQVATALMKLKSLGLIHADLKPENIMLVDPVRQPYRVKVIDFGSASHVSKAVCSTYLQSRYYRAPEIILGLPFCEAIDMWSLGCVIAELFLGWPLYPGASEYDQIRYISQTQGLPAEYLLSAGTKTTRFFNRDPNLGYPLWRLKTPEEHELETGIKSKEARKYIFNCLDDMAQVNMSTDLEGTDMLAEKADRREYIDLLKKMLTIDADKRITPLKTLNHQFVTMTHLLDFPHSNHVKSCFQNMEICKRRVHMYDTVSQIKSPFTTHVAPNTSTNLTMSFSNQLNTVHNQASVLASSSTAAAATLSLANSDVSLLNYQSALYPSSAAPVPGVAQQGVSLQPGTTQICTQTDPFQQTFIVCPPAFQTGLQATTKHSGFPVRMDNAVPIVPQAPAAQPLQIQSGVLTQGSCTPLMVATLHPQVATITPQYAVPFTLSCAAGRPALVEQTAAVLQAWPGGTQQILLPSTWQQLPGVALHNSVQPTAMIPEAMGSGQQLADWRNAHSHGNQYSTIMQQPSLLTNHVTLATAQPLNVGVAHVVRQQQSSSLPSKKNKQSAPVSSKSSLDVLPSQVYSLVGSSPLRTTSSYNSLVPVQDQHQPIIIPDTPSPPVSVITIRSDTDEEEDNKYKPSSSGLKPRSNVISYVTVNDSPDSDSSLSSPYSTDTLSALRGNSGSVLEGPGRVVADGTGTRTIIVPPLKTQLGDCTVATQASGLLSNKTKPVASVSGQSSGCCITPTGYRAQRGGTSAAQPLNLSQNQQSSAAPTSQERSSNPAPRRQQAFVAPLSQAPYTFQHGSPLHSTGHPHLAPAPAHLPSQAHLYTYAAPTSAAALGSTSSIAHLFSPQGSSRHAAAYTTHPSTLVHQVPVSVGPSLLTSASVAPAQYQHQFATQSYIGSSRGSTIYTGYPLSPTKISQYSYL
# Sequence of MAP3K2 (MEKK2) (Q9Y2U5 whole entry): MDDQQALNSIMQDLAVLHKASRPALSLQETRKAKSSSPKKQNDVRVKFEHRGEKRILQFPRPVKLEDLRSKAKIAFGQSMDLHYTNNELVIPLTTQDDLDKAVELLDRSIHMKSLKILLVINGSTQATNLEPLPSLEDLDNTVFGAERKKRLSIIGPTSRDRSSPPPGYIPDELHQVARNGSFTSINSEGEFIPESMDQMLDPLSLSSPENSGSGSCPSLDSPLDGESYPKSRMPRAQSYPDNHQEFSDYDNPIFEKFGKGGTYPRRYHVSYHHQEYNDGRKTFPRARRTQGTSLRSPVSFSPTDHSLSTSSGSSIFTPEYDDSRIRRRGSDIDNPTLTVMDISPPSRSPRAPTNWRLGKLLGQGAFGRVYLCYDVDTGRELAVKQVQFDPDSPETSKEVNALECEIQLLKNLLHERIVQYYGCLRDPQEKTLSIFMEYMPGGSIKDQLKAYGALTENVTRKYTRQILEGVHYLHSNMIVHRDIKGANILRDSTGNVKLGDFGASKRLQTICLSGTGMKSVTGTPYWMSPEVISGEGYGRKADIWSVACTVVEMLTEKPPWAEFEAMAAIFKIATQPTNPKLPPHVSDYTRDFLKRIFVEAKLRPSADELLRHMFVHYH
# Sequence of BTK (Q06187 whole entry): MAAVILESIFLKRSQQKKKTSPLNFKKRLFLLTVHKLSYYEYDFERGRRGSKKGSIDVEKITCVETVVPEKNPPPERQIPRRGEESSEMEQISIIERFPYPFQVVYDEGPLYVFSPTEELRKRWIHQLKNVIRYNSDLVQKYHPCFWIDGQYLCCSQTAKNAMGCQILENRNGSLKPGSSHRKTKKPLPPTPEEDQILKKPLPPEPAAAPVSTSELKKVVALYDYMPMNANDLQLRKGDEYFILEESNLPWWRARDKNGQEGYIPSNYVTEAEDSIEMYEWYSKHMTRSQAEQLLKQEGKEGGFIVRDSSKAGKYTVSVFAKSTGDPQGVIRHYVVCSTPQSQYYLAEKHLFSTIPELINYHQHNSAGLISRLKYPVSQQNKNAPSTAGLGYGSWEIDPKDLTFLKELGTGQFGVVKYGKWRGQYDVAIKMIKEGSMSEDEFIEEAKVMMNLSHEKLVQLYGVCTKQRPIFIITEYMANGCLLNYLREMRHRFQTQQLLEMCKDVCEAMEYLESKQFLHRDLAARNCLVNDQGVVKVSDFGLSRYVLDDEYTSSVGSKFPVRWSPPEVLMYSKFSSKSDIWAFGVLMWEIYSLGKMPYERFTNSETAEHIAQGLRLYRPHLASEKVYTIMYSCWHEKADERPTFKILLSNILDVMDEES
structure (smiles),measurement,setting,value
C#CCOc1ccc(Nc2ncc(Cl)c(Nc3ccccc3NC(=O)C=C)n2)c(OC)c1 [Compound 6],IC50,AURKA (Aurora A),631 nM
same,inhibition at 1 µM,AURKA (Aurora A); [1],74%
same,inhibition at 10 µM,"AURKA (Aurora A); 1 h, log[inhibitor] (M) -5.00, ZLYTE, ATP Km app",100%
same,inhibition at 3.31 µM,"AURKA (Aurora A); 1 h, log[inhibitor] (M) -5.48, ZLYTE, ATP Km app",90%
same,inhibition at 1.12 µM,"AURKA (Aurora A); 1 h, log[inhibitor] (M) -5.95, ZLYTE, ATP Km app",69%
same,inhibition at 0.372 µM,"AURKA (Aurora A); 1 h, log[inhibitor] (M) -6.43, ZLYTE, ATP Km app",46%
same,inhibition at 0.123 µM,"AURKA (Aurora A); 1 h, log[inhibitor] (M) -6.91, ZLYTE, ATP Km app",28%
same,inhibition at 0.04074 µM,"AURKA (Aurora A); 1 h, log[inhibitor] (M) -7.39, ZLYTE, ATP Km app",16%
same,inhibition at 0.0138 µM,"AURKA (Aurora A); 1 h, log[inhibitor] (M) -7.86, ZLYTE, ATP Km app",8%
same,inhibition at 0.004571 µM,"AURKA (Aurora A); 1 h, log[inhibitor] (M) -[…], ZLYTE, ATP Km app",3%
same,Inhibition at 1 µM (%),"AURKA (Aurora A); AURKA (Aurora A), 1 µM, ZLYTE, ATP Km app, listed as WEL028, 1 µM",70%
same,Apparent fold selectivity,AURKA (Aurora A); IC50 on that kinase divided by IC50 on FES^S700C,155 fold
same,inhibition at 1 µM,"AURKA (Aurora A); read-out: Inhibition at 1 µM (%), AURKA (Aurora A), 1 µM, ZLYTE, ATP Km app",78%
same,Inhibition (%),"BTK; 1 μM WEL028, 1 h preincubation",11%
same,Inhibition at 1 µM (%),"BTK; BTK, 1 µM, ZLYTE, ATP Km app",17%
same,inhibition at 1 µM,CSF1R (FMS); [1],11%
same,Inhibition at 1 µM (%),"CSF1R (FMS); CSF1R (FMS), 1 µM, ZLYTE, ATP Km app, listed as WEL028, 1 µM",8%
same,inhibition at 1 µM,"CSF1R (FMS); read-out: Inhibition at 1 µM (%), CSF1R (FMS), 1 µM, ZLYTE, ATP Km app",13%
same,Inhibition (%),"CSNK1G2 (CK1 gamma 2); 1 μM WEL028, 1 h preincubation",4%
same,Inhibition at 1 µM (%),"CSNK1G2 (CK1 gamma 2); CSNK1G2 (CK1 gamma 2), 1 µM, ZLYTE, ATP Km app, listed as WEL028, 1 µM",7% and 1%
same,inhibition at 1 µM,HIPK1 (Myak); [1],-4%
same,Inhibition at 1 µM (%),HIPK1 (Myak),-2%
same,Inhibition at 1 µM (%),"HIPK1 (Myak); listed as WEL028, 1 µM",-6%
same,Inhibition (%),"LATS2; 1 μM WEL028, 1 h preincubation",2%
same,Inhibition at 1 µM (%),LATS2,3%
same,Inhibition at 1 µM (%),"LATS2; listed as WEL028, 1 µM",0%
same,inhibition at 1 µM,MAP3K2 (MEKK2); [1],3%
same,Inhibition at 1 µM (%),"MAP3K2 (MEKK2); MAP3K2 (MEKK2), 1 µM, LanthaScreen Binding, listed as WEL028, 1 µM",6% and 1%
same,inhibition at 1 µM,MERTK (cMER); [1],4%
same,Inhibition at 1 µM (%),"MERTK (cMER); MERTK (cMER), 1 µM, ZLYTE, ATP Km app, listed as WEL028, 1 µM",0% and 9%
same,inhibition at 1 µM,PRKCI (PKC iota); [1],10%
same,Inhibition at 1 µM (%),PRKCI (PKC iota),15%
same,Inhibition at 1 µM (%),"PRKCI (PKC iota); listed as WEL028, 1 µM",5%
